Experimental findings from patent US11365196B2, “FGFR inhibitor and application thereof” (Betta Pharmaceuticals Co., Ltd., priority 2017, dated 2022) are described below.

Like-named read-outs stand apart in the source and are kept apart here.

For one assay, the target named is FGFR2 (Homo sapiens (Human), UniProt P21802). Description: Kinase assay Method 1, mobility shift assay. The format is biochemical. Conditions: ATP at Km, read-out: IC50(nM) value of compounds FGFR2.
A further assay has as its target FGFR3 (Homo sapiens (Human), UniProt P22607). Description: Kinase assay Method 1, mobility shift assay. The class given is biochemical. The note with it: ATP at Km, read-out: IC50(nM) value of compounds FGFR3.
The target in another assay is FGFR4 (Homo sapiens (Human), UniProt P22455). Description: Kinase assay Method 1, mobility shift assay. The format is biochemical. The note with it: ATP at Km, numeric values, read-out: IC50(nM) value of compounds FGFR4.
The next assay relates to NCI-H1581 cells. Description: Cell proliferation assay on NCI-H1581 (Table 7). The format is cell-based, human. From the text: (§1) Test method: adding the appropriate volume of whole medium and the cells was suspended.
In another assay the test system is SNU-16 cells. Description: Cell proliferation assay on SNU-16, CellTiter Glo (Table 8). The class given is cell-based, human. The note with it: Homo sapiens, SNU-16, 96 hrs, class symbols, read-out: IC50(nM) value of compounds on SNU-16 cells.
From the text: as §1
On the technique in general: ATP-based viability assays read luminescence as a measure of living cells.

The target in the next assay is FGFR1 (Homo sapiens (Human), UniProt P11362). Description: Kinase assay Method 1, mobility shift assay. The note with it: read-out: IC50(nM) value of compounds FGFR1; mobility shift assay, ATP at Km; class symbols.
[1] abbreviates: Homo sapiens, NCI-H1581, read-out: IC50(nM) value of compounds on NCI-H1581 cells.
Where [2] appears, read: Homo sapiens, NCI-H1581, CellTiter 96 AQueous (144 hrs) or CellTiter Glo (96 hrs), class symbols, read-out: IC50(nM) value of compounds on NCI-H1581 cells.

Chain of FGFR2 (P21802 22-821): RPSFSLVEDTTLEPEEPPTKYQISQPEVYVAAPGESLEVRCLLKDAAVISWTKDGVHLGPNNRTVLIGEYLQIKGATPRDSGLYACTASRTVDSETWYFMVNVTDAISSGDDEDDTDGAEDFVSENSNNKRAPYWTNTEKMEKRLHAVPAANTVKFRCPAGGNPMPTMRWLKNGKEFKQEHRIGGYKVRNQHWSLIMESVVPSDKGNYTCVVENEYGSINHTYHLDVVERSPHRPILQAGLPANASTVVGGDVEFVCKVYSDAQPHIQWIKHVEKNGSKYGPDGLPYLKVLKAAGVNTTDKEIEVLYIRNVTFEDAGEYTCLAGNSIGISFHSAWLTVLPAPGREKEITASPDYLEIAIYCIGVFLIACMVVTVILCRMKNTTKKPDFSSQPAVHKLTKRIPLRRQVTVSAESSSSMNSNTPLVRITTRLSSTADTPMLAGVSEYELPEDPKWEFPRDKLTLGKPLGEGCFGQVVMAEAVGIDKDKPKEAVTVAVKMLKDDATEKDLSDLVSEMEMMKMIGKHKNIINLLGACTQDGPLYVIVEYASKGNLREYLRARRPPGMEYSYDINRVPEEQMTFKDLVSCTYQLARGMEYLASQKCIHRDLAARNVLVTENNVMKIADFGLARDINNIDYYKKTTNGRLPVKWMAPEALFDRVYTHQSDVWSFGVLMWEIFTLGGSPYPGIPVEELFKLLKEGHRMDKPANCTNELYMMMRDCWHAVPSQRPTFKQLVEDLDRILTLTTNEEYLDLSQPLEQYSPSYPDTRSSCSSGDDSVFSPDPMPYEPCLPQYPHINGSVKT
Chain of FGFR4 (P22455 22-802): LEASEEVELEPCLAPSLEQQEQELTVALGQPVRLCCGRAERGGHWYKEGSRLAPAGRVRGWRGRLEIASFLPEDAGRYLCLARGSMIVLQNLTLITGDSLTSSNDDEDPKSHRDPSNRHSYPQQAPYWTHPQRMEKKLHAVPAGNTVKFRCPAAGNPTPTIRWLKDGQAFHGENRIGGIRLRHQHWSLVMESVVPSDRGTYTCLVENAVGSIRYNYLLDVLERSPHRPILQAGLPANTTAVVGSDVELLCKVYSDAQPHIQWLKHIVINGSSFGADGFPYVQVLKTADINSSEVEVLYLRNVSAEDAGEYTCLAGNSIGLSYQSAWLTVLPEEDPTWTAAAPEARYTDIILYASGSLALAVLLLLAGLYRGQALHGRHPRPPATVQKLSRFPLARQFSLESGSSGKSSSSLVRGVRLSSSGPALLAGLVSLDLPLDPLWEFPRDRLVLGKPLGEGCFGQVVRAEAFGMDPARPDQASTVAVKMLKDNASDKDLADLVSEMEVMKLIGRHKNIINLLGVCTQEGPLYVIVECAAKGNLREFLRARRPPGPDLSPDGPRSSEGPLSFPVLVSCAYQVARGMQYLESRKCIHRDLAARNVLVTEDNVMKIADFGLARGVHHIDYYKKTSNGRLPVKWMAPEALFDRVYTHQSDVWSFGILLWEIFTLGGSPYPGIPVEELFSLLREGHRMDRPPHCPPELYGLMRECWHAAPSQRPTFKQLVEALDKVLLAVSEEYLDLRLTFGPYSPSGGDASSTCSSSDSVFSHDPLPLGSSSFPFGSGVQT
Chain of FGFR3 (P22607 23-806): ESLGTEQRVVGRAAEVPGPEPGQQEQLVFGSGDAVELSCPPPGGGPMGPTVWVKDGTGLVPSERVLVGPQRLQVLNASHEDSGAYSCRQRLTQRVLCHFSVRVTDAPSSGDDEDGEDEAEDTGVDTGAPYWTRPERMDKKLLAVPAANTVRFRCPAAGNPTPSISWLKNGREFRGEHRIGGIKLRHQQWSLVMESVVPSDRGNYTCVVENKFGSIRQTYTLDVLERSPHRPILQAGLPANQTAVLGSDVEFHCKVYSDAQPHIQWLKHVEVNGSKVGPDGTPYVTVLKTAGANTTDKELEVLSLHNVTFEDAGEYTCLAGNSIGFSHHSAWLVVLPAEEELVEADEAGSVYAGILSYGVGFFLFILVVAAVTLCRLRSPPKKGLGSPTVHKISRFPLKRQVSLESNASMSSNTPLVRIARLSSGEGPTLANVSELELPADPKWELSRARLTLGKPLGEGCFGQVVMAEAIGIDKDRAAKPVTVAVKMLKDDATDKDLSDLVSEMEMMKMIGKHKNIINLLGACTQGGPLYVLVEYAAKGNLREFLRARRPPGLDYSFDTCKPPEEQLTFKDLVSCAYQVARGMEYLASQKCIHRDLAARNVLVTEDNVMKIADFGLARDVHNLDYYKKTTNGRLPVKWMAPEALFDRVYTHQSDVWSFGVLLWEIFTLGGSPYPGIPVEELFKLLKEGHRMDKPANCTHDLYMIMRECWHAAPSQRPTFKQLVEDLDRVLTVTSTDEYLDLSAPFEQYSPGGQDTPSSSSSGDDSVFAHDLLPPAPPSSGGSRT
Chain of FGFR1 (P11362 22-822): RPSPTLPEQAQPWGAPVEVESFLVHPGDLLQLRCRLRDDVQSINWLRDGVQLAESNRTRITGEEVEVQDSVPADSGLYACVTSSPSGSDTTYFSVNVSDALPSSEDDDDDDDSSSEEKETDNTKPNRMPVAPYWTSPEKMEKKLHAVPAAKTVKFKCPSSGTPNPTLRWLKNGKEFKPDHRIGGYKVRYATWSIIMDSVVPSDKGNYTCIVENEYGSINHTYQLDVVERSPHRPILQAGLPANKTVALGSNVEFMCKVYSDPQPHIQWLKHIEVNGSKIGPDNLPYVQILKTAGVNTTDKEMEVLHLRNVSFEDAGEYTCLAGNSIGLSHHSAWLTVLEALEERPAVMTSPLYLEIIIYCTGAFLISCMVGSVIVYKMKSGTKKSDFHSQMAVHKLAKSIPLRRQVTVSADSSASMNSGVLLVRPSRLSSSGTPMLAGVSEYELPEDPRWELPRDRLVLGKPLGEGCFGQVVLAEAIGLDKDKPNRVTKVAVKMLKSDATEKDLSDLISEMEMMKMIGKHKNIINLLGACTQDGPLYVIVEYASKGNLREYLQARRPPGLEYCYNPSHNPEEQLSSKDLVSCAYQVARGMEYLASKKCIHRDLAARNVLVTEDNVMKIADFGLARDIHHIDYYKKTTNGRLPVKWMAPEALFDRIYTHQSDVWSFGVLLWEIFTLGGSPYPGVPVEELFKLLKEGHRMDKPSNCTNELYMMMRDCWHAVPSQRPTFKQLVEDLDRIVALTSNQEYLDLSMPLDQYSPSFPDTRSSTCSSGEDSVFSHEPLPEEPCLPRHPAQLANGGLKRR
Protocol for FGFR1: Method 1: The inhibitory activity of some compounds of the present disclosure against FGFR1, FGFR2, FGFR3, FGFR4, KDR was tested by mobility shift assay (concentration of ATP is Km value).
Preparing of compounds: dilute test compounds to specific concentration using 100% DMSO

Broadly, the IC50 is the concentration at which inhibition is half-maximal. Take `COc1cc(OC)c(Cl)c(-c2cc3cnc(Nc4ccc(N5CCN6CCC[C@@H]6C5)cc4)nc3n3cnnc23)c1` [Compound 24, (R)-6-(2-chloro-3,5-dimethoxyphenyl)-N-(4-(hexahydropyrrolo[1,2-a]pyrazin-2(1H)-yl)phenyl)-[1,2,4]triazolo[4′,3′:1,6]pyrido[2,3-d]pyrimidin-2-amine]: the IC50 at FGFR2 was 1.8 nM; on FGFR3 it was 0.8 nM; on FGFR4, 26 nM; in the assay on NCI-H1581 cells (setting [1]) it was 1.2 nM; in the assay on SNU-16 cells, less than 1 nM.
Consider `COc1cc(OC)c(Cl)c(-c2cc3cnc(Nc4ccc(N5CCC(N6CCOCC6)CC5)cc4)nc3n3cnnc23)c1` [Compound 29, 6-(2-chloro-3,5-dimethoxyphenyl)-N-(4-(4-morpholinopiperidin-1-yl)phenyl)-[1,2,4]triazolo[4′,3′:1,6]pyrido[2,3-d]pyrimidin-2-amine], for which the IC50 in the assay with NCI-H1581 cells (setting [1]) is 2 nM; in the assay on SNU-16 cells, less than 1 nM.
As to `COc1cc(OC)c(Cl)c(-c2cc3cnc(Nc4ccc(N5CCN6CCOC[C@@H]6C5)cc4)nc3n3cnnc23)c1` [Compound 42, (S)-6-(2-chloro-3,5-dimethoxyphenyl)-N-(4-(hexahydropyrazino[2,1-c][1,4]oxazin-8(1H)-yl)phenyl)-[1,2,4]triazolo[4′,3′:1,6]pyrido[2,3-d]pyrimidin-2-amine], the IC50 on FGFR2 is 1.3 nM; on FGFR3, 1.6 nM; in the assay on NCI-H1581 cells (setting [1]) it was 3.2 nM; in the assay on SNU-16 cells, less than 1 nM.
Regarding `COc1cc(OC)c(Cl)c(-c2cc3cnc(Nc4ccc(N5CCN6CCOC[C@H]6C5)cc4)nc3n3cnnc23)c1` [Compound 43, (R)-6-(2-chloro-3,5-dimethoxyphenyl)-N-(4-(hexahydropyrazino[2,1-c][1,4]oxazin-8(1H)-yl)phenyl)-[1,2,4]triazolo[4′,3′:1,6]pyrido[2,3-d]pyrimidin-2-amine], the IC50 in the assay with NCI-H1581 cells (setting [1]) was 1 to 10 nM; in the assay with SNU-16 cells, less than 1 nM.
For `COc1cc(OC)c(Cl)c(-c2cc3cnc(Nc4ccc(CN5CCN(C)CC5)cc4)nc3n3cnnc23)c1` [Compound 46, 6-(2-chloro-3,5-dimethoxyphenyl)-N-(4-((4-methylpiperazin-1-yl)methyl)phenyl)-[1,2,4]triazolo[4′,3′:1,6]pyrido[2,3-d]pyrimidin-2-amine], the IC50 came to 56 nM at FGFR4 and 2.4 nM in the assay with NCI-H1581 cells (setting [1]).
With `COc1cc(OC)c(Cl)c(-c2cc3cnc(Nc4ccc(N5C[C@@H](C)N[C@@H](C)C5)cc4)nc3n3cnnc23)c1` [Compound 50, 6-(2-chloro-3,5-dimethoxyphenyl)-N-(4-((3S,5R)-3,5-dimethylpiperazin-1-yl)phenyl)-[1,2,4]triazolo[4′,3′:1,6]pyrido[2,3-d]pyrimidin-2-amine], the IC50 is 35 nM at FGFR4, 0.2 nM in the assay on NCI-H1581 cells (setting [1]) and less than 1 nM with SNU-16 cells.
On to `COc1cc(OC)c(Cl)c(-c2cc3cnc(Nc4ccc(N5CC6CCC(C5)N6)cc4)nc3n3cnnc23)c1` [Compound 51, N-(4-(3,8-diazabicyclo[3.2.1]octan-3-yl)phenyl)-6-(2-chloro-3,5-dimethoxyphenyl)[1,2,4]triazolo[4′,3′:1,6]pyrido[2,3-d]pyrimidin-2-amine], for which the IC50 at FGFR4 came out at 42 nM; in the assay with NCI-H1581 cells (setting [1]), 1.4 nM.
The matching figures for `COc1cc(OC)c(Cl)c(-c2cc3cnc(Nc4ccc5c(c4)CCNC5)nc3n3cnnc23)c1` [Compound 53, 6-(2-chloro-3,5-dimethoxyphenyl)-N-(1,2,3,4-tetrahydroisoquinolin-6-yl)-[1,2,4]triazolo[4′,3′:1,6]pyrido[2,3-d]pyrimidin-2-amine]: 14 nM and 0.7 nM.
Regarding `COc1cc(OC)c(Cl)c(-c2cc3cnc(Nc4ccc(N5C[C@@H](C)N[C@@H](C)C5)c(F)c4)nc3n3cnnc23)c1` [Compound 56, 6-(2-chloro-3,5-dimethoxyphenyl)-N-(4-((3S,5R)-3,5-dimethylpiperazin-1-yl)-3-fluorophenyl)-[1,2,4]triazolo[4′,3′:1,6]pyrido[2,3-d]pyrimidin-2-amine], the figures for the IC50 on FGFR4 and in the assay with NCI-H1581 cells (setting [1]) were 51 nM and 1.2 nM, respectively.
`COc1cc(OC)c(Cl)c(-c2cc3cnc(Nc4ccc(N5CCN6CCC[C@@H]6C5)cc4)nc3n3cnnc23)c1Cl` [Compound 64, (R)-6-(2,6-dichloro-3,5-dimethoxyphenyl)-N-(4-(hexahydropyrrolo[1,2-a]pyrazin-2(1H)-yl)phenyl)-[1,2,4]triazolo[4′,3′:1,6]pyrido[2,3-d]pyrimidin-2-amine]: the IC50 was 2.7 nM on FGFR2; 0.6 nM at FGFR3; 14 nM on FGFR4; 0.5 nM with NCI-H1581 cells (setting [1]); less than 1 nM with SNU-16 cells.
As to `COc1cc(OC)c(Cl)c(-c2cc3cnc(Nc4ccc(N5CCC(N6CCOCC6)CC5)cc4)nc3n3cnnc23)c1Cl` [Compound 65, 6-(2,6-dichloro-3,5-dimethoxyphenyl)-N-(4-(4-morpholinopiperidin-1-yl)phenyl)-[1,2,4]triazolo[4′,3′:1,6]pyrido[2,3-d]pyrimidin-2-amine], the results for the IC50 at FGFR4 and in the assay on NCI-H1581 cells (setting [1]) were 6.7 nM and 0.6 nM, respectively.
As to `CCN1CCN(c2ccc(Nc3ncc4cc(-c5cc6[nH]c(C)nc6cc5Cl)c5nncn5c4n3)cc2)CC1` [Compound 67, 6-(5-chloro-2-methyl-1H-benzo[d]imidazol-6-yl)-N-(4-(4-ethylpiperazin-1-yl)phenyl)-[1,2,4]triazolo[4′,3′:1,6]pyrido[2,3-d]pyrimidin-2-amine], the half-maximal inhibitory concentration (IC50) on FGFR4 is 90 nM; in the assay with NCI-H1581 cells (setting [1]), 1 to 10 nM.
For `Cc1nc2cc(Cl)c(-c3cc4cnc(Nc5ccc(N6CCC(N(C)C)CC6)cc5)nc4n4cnnc34)cc2[nH]1` [Compound 78, 6-(5-chloro-2-methyl-1H-benzo[d]imidazol-6-yl)-N-(4-(4-(dimethylamino)piperidin-1-yl)phenyl)-[1,2,4]triazolo[4′,3′:1,6]pyrido[2,3-d]pyrimidin-2-amine], the IC50 on FGFR4 was 600 nM; in the assay with NCI-H1581 cells (setting [1]) it was 5.3 nM.
Taken in the same sequence, the figures for `Cc1nc2cc(Cl)c(-c3cc4cnc(Nc5ccc(N6CCOCC6)cc5)nc4n4cnnc34)cc2[nH]1` [Compound 81, 6-(5-chloro-2-methyl-1H-benzo[d]imidazol-6-yl)-N-(4-morpholinophenyl)-[1,2,4]triazolo[4′,3′:1,6]pyrido[2,3-d]pyrimidin-2-amine] were 191 nM and 9.3 nM.
Take `Cc1nc2cc(Cl)c(-c3cc4cnc(Nc5ccc(N6CCN7CCC[C@@H]7C6)cc5)nc4n4cnnc34)cc2[nH]1` [Compound 84]: the values for the IC50 in the assay with NCI-H1581 cells (setting [2]), in the assay on SNU-16 cells and on FGFR1 were 1 to 10 nM, 1 to 10 nM and less than 1 nM, respectively.
On to `CCN1CCC(c2ccc(Nc3ncc4cc(-c5cc(OC)cc(OC)c5Cl)c5nncn5c4n3)cc2)CC1` [Compound 102, 6-(2-chloro-3,5-dimethoxyphenyl)-N-(4-(1-ethylpiperidin-4-yl)phenyl)-[1,2,4]triazolo[4′,3′:1,6]pyrido[2,3-d]pyrimidin-2-amine], for which the IC50 at FGFR4 was 60 nM; with NCI-H1581 cells (setting [1]), 0.7 nM.
For `COc1cc(OC)c(Cl)c(-c2cc3cnc(Nc4ccc(C5CCNCC5)cc4)nc3n3cnnc23)c1` [Compound 102-2], the figures for the IC50 at FGFR4 and in the assay with NCI-H1581 cells (read-out: IC50(nM) value of compounds on NCI-H1581 cells) were 26 nM and 0.9 nM, respectively.
Consider `CCN1CCN(Cc2ccc(Nc3ncc4cc(-c5cc(OC)cc(OC)c5Cl)c5nncn5c4n3)cn2)CC1` [Compound 111, 6-(2-chloro-3,5-dimethoxyphenyl)-N-(6-((4-ethylpiperazin-1-yl)methyl)pyridin-3-yl)-[1,2,4]triazolo[4′,3′:1,6]pyrido[2,3-d]pyrimidin-2-amine], for which the IC50 at FGFR4 was 288 nM; in the assay with NCI-H1581 cells (setting [1]) it was 8.2 nM.
Turning to `C=CC(=O)N1CCN(CCCc2nc3c(-c4cc(OC)cc(OC)c4Cl)cc4cnc(NC)nc4n3n2)CC1` [Compound 115, 1-(4-(3-(4-(2-chloro-3,5-dimethoxyphenyl)-8-(methylamino)-[1,2,4]triazolo[1′,5′:1,6]pyrido[2,3-d]pyrimidin-2-yl)propyl)piperazin-1-yl)prop-2-en-1-one], the IC50 at FGFR4 was 6.8 nM.
For the compound `C=CC(=O)N1CCN(Cc2nc3c(-c4c(Cl)c(OC)cc(OC)c4Cl)cc4cnc(NC)nc4n3n2)CC1` [Compound 123, 1-(4-(2-(4-(2,6-dichloro-3,5-dimethoxyphenyl)-8-(methylamino)-[1,2,4]triazolo[1′,5′:1,6]pyrido[2,3-d]pyrimidin-2-yl)methyl)piperazin-1-yl)prop-2-en-1-one], the concentration for half-maximal inhibition (IC50) at FGFR4 is 730 nM; with NCI-H1581 cells (setting [1]), 5.8 nM.
In the case of `C=CC(=O)N1CCC2(CC1)CN(CCCc1nc3c(-c4c(Cl)c(OC)cc(OC)c4Cl)cc4cnc(NC)nc4n3n1)C2` [Compound 138, 1-(2-(3-(4-(2,6-dichloro-3,5-dimethoxyphenyl)-8-(methylamino)-[1,2,4]triazolo[1′,5′:1,6]pyrido[2,3-d]pyrimidin-2-yl)propyl)-2,7-diazaspiro[3.5]nonan-7-yl)prop-2-en-1-one], the half-maximal inhibitory concentration (IC50) with SNU-16 cells was 1 to 10 nM.
With `CNc1ncc2cc(-c3c(Cl)c(OC)cc(OC)c3Cl)c3nc(CCCN4CCN(C(=O)C(C#N)=CC(C)C)CC4)nn3c2n1` [Compound 147, 2-(4-(3-(4-(2,6-dichloro-3,5-dimethoxyphenyl)-8-(methylamino)-[1,2,4]triazolo[1′,5′:1,6]pyrido[2,3-d]pyrimidin-2-yl)propyl)piperazine-1-carbonyl)-4-methylpent-2-enenitrile], the IC50 with NCI-H1581 cells (setting [2]) and in the assay with SNU-16 cells was 10 to 100 nM in each case.
